One may read the IC50 as the concentration at which inhibition is half-maximal. For orientation: IC90 means the concentration needed for an effect of 90%.

Data set [1] has as its target SARS-CoV-2 tHRN peptide (44 residues) (Severe acute respiratory syndrome coronavirus 2, UniProt P0DTC2). The data set is classed as binding.
Data set [2] has as its target SARS-CoV-2 HRN peptide (55 residues) (Severe acute respiratory syndrome coronavirus 2, UniProt P0DTC2). The data set is classed as binding. The conditions noted are these: pH 7.4.
In another data set the test system is SARS-CoV-2 S BA.5. The data set is classed as cell-based. The note with it: for IC50: read-out: IC50, inhibition of S-mediated cell–cell fusion, SARS-CoV-2 BA.5; for IC90: read-out: IC90, inhibition of S-mediated cell–cell fusion, SARS-CoV-2 BA.5.
The nature of data set [3]: Chemical stability in PBS by UPLC. The data set is classed as physicochemical. The note with it: room temperature; for Peptide degradation after incubation in PBS: 2 weeks, UPLC 220 nm, disulfide peak after 1 day removed by TCEP; for Integrity during the solubility study: up to 168 h, UPLC, 220 nm.
The conditions of data set [4]: pH 7.4.

Where two headings read alike, the source gives them in different places.

Take `CC[C@H](C)[C@H](NC(=O)[C@H](C)NC(=O)[C@H](CCC(=O)O)NC(=O)[C@H](CCC(=O)O)NC(=O)[C@H](CC(C)C)NC(=O)[C@H](CCCCN)NC(=O)[C@H](CCCCN)NC(=O)[C@H](CCSC)NC(=O)[C@H](CCC(=O)O)NC(=O)[C@H](Cc1ccc(O)cc1)NC(=O)[C@H](CCC(=O)O)NC(=O)[C@H](CC(C)C)NC(=O)[C@H](CC(=O)O)NC(=O)[C@H](CC(C)C)NC(=O)[C@H](Cc1ccccc1)NC(=O)[C@@H](NC(=O)[C@@H](NC(=O)[C@H](CC(N)=O)NC(=O)[C@@H](NC(=O)[C@H](CCC(N)=O)NC(=O)[C@H](CC(=O)O)NC(=O)[C@H](CC(C)C)NC(=O)[C@H](CO)NC(C)=O)[C@@H](C)CC)C(C)C)[C@@H](C)O)C(=O)N[C@@H](CCCCN)C(=O)N[C@@H](CCCCN)C(=O)N[C@@H](CC(C)C)C(=O)N[C@@H](CCC(=O)O)C(=O)N[C@@H](CCC(=O)O)C(=O)N[C@@H](CO)C(=O)N[C@@H](Cc1ccc(O)cc1)C(=O)N[C@H](C(=O)N[C@@H](CC(=O)O)C(=O)N[C@@H](CC(C)C)C(=O)N[C@@H](CCCCN)C(=O)N[C@@H](CCC(=O)O)C(=O)N[C@@H](CC(C)C)C(N)=O)[C@@H](C)CC` [EK1, reference compound]: the “Tm of 1:1 mixture with tHRN” value in data set [1] (pH 7.4) came to 38 ± 0.3 °C.

With “Ac-DISQINASVVNIEYEIKKLEEVAKKLEESLIDLQEL-NH2 [QE]”, in data set [1] (5-95 °C), the “Tm of 1:1 mixture with tHRN” value was 65 +/- 0.5 °C. Moreover, the “Temperature above which disruption of the helical assembly with HRN is detectable” value in data set [2] is above 70 °C. In the data set on SARS-CoV-2 S BA.5, the IC50 is 7 ± 2.1 nM and the IC90 is 14 ± 4 nM. For the same compound, the “Peptide degradation after incubation in PBS” value in data set [3] is given as “No peptide degradation was observed”.

Turning to “Ac-DISQINASVVNIEYEIKKLEEVAKKLEESLIDLQELGSGSGC-NH2 [QE-L]”, in data set [4], the “Solubility relative to HRC-L” value is “~ two-fold”. For the same compound, in data set [3], the “Integrity during the solubility study” value is given as “remained intact”.

For “Ac-PDVDLGDISQINASVVNIEYEIKKLEEVAKKLEESLIDLQEL-NH2 [QE-EXT]”, in the data set with SARS-CoV-2 S BA.5, the 50% inhibitory concentration (IC50) is 5.6 ± 0.72 nM.

With “Ac-SIDQINATFVDIEYEIKKLEEVAKKLEESYIDLKEL-NH2 [SK]”, the “Tm of 1:1 mixture with tHRN” value in data set [1] (5-95 °C) was 72 +/- 0.3 °C. Besides, in data set [2], the “Temperature above which disruption of the helical assembly with HRN is detectable” value is above 70 °C. Further, in the data set on SARS-CoV-2 S BA.5, the IC50 was determined as 6.2 ± 1.1 nM and the IC90 was determined as 14 ± 2 nM. The “Peptide degradation after incubation in PBS” value in data set [3] is “No peptide degradation was observed”.

As for “Ac-SIDQINATFVDIEYEIKKLEEVAKKLEESYIDLKELGSGSGC-NH2 [SK-L]”, in data set [4], the “Solubility relative to HRC-L” value is given as “~ two-fold”. Moreover, the “Integrity during the solubility study” value in data set [3] was “remained intact”.

For the origin of these results see PMC11915835, “Enhancing the solubility of SARS-CoV-2 inhibitors to increase future prospects for clinical development” (Journal of Virology, 2025).
